Here are results for 18 compounds from PubChem BioAssay (NCI).

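A five-concentration, 48-hour dose response in 96-well plates underlies each endpoint, interpolated linearly between surrounding concentrations. GI50: concentration for 50% inhibition of growth. The concentration for full growth arrest is given as TGI.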

One assay relates to BT-549 breast. Briefly: NCI tumour cell line growth inhibition, 48 h.
The compound `CNC(=O)OCc1nc(SSC(C)(C)C)n(C)c1COC(=O)NC` gave a TGI of 2.83 µM.
As to `N[C@H](C(=O)O)[C@@H]1CC(Cl)=NO1`, the GI50 was 7.4 µM and the TGI is over 1000 µM.
The compound `NCCCNCCS` yielded a TGI of over 100 µM.
Same read-out and setting: as for `Nc1ncnc2c1ncn2C1C=C(CO)C(O)C1O` (stereo not given), the figure is over 100 µM; as for `O=C(NC(=O)c1c(F)cccc1F)Nc1cccc(Oc2ncc(Cl)cn2)c1`, over 100 µM.

The subject of a further assay is XF 498 CNS. Briefly: NCI tumour cell line growth inhibition, 48 h.
Turning to `CC1(O)C(C)(O)C2(C)O[Te]3(OC12C)OC1(C)C(C)(O)C(C)(O)C1(C)O3` (stereo not given), the TGI was over 100 µM.
The same measure, in the same setting: as for `O=C1COc2cc(NC(=S)Nc3ccccc3)ccc2N1`, the figure is over 100 µM.
Still for that read-out and setting: under `O=C1C=C(Nc2ccccc2C(=O)CC(=O)C(=O)Nc2cccc([N+](=O)[O-])c2)c2ccccc2C1=O` stands 53.8 µM; under `CNC(=O)OCc1nc(SSC(C)(C)C)n(C)c1COC(=O)NC`, 5.47 µM; under `O=C(Nc1ccc(Cl)cc1)C1C(=O)C(=O)N(c2ccc(Cl)cc2)C1=O` (stereo not given), over 100 µM.
Same read-out and setting: as for `N[C@H](C(=O)O)[C@@H]1CC(Cl)=NO1`, the figure is 250 µM; as for `NCCCNCCS`, over 100 µM; as for `Nc1ncnc2c1ncn2C1C=C(CO)C(O)C1O` (stereo not given), over 100 µM.
With `C[C@]12CC=CC(=O)[C@@]1(C)CCC(=O)C2`, the TGI is over 100 µM.
Still for that read-out and setting: as for `CC(=O)Oc1cc2c(cc1OC(C)=O)C1(C)CCC2(C)c2cc(OC(C)=O)c(OC(C)=O)cc21`, the figure is 29.1 µM; as for `O=C(NC(=O)c1c(F)cccc1F)Nc1cccc(Oc2ncc(Cl)cn2)c1`, 69 µM.

The next assay deals with M19-MEL melanoma. Briefly: NCI tumour cell line growth inhibition, 48 h.
`CC(=O)Oc1c(C)c(-c2ccccc2)c(C)c(-c2ccccc2)c1C(=S)c1ccccc1` had a TGI of over 100 µM.
Same read-out and setting: under `CCCCCCCCCCCC(=O)OCCOCCOCCOCCOCCOC(=O)CCCCCCCCCCC` stands over 100 µM; under `CC1(O)C(C)(O)C2(C)O[Te]3(OC12C)OC1(C)C(C)(O)C(C)(O)C1(C)O3` (stereo not given), 70.8 µM; under `O=C1COc2cc(NC(=S)Nc3ccccc3)ccc2N1`, over 100 µM.
In turn, `O=C1C=C(Nc2ccccc2C(=O)CC(=O)C(=O)Nc2cccc([N+](=O)[O-])c2)c2ccccc2C1=O` showed a TGI of 19.3 µM.
On the same count and under the same terms, under `CNC(=O)OCc1nc(SSC(C)(C)C)n(C)c1COC(=O)NC` stands 13.6 µM; under `O=C(Nc1ccc(Cl)cc1)C1C(=O)C(=O)N(c2ccc(Cl)cc2)C1=O` (stereo not given), over 100 µM.
Still for that read-out and setting: under `O=C(Nc1ccc(C(F)(F)F)cc1[N+](=O)[O-])C(=O)C1NC(=S)NC1=O` (stereo not given) stands over 100 µM; under `COc1cc(NCC(C#N)C#N)ccc1N=Nc1ccc(Cl)cc1`, 55.9 µM.
On the same count and under the same terms, under `O=C1N/C(=C\[N+](=O)[O-])c2ccccc21` stands over 100 µM.
In turn, `Nc1ncnc2c1ncn2C1C=C(CO)C(O)C1O` (stereo not given) yielded a TGI of over 100 µM.
Still for that read-out and setting: under `NC(CCCC(N)P(=O)(O)O)P(=O)(O)O` (stereo not given) stands over 100 µM.
In the case of `CCOC(=O)[CH-]C(=O)C12CC3CC(CC(C3)C1)C2.CCOC(=O)[CH-]C(=O)C12CC3CC(CC(C3)C1)C2.CC[O-].CC[O-].[Ti+4]`, the GI50 was over 100 µM and the TGI was over 100 µM.
Turning to `C[C@]12CC=CC(=O)[C@@]1(C)CCC(=O)C2`, the TGI is over 100 µM.
The same measure, in the same setting: as for `CC(=O)Oc1cc2c(cc1OC(C)=O)C1(C)CCC2(C)c2cc(OC(C)=O)c(OC(C)=O)cc21`, the figure is 75.2 µM.
Same read-out and setting: as for `O=C(NC(=O)c1c(F)cccc1F)Nc1cccc(Oc2ncc(Cl)cn2)c1`, the figure is over 100 µM.

Another assay deals with HOP-18 NSCLC. Briefly: NCI tumour cell line growth inhibition, 48 h.
With `CC(=O)Oc1c(C)c(-c2ccccc2)c(C)c(-c2ccccc2)c1C(=S)c1ccccc1`, the TGI was over 100 µM.
Still for that read-out and setting: as for `CCCCCCCCCCCC(=O)OCCOCCOCCOCCOCCOC(=O)CCCCCCCCCCC`, the figure is over 100 µM.
The compound `O=C1COc2cc(NC(=S)Nc3ccccc3)ccc2N1` gave a TGI of over 100 µM.
The same measure, in the same setting: under `CNC(=O)OCc1nc(SSC(C)(C)C)n(C)c1COC(=O)NC` stands 10.8 µM; under `O=C(Nc1ccc(Cl)cc1)C1C(=O)C(=O)N(c2ccc(Cl)cc2)C1=O` (stereo not given), over 100 µM.
Regarding `O=C(Nc1ccc(C(F)(F)F)cc1[N+](=O)[O-])C(=O)C1NC(=S)NC1=O` (stereo not given), the TGI is over 100 µM.
Same read-out and setting: as for `COc1cc(NCC(C#N)C#N)ccc1N=Nc1ccc(Cl)cc1`, the figure is 39.7 µM; as for `N[C@H](C(=O)O)[C@@H]1CC(Cl)=NO1`, over 1000 µM.
Still for that read-out and setting: as for `NCCCNCCS`, the figure is over 100 µM; as for `O=C1N/C(=C\[N+](=O)[O-])c2ccccc21`, over 100 µM.
Consider `Nc1ncnc2c1ncn2C1C=C(CO)C(O)C1O` (stereo not given), for which the TGI is over 100 µM.
On the same count and under the same terms, as for `NC(CCCC(N)P(=O)(O)O)P(=O)(O)O` (stereo not given), the figure is over 100 µM.
As for `CCOC(=O)[CH-]C(=O)C12CC3CC(CC(C3)C1)C2.CCOC(=O)[CH-]C(=O)C12CC3CC(CC(C3)C1)C2.CC[O-].CC[O-].[Ti+4]`, the GI50 was over 100 µM and the TGI is over 100 µM.
The compound `O=C(NC(=O)c1c(F)cccc1F)Nc1cccc(Oc2ncc(Cl)cn2)c1` yielded a TGI of over 100 µM.

Another assay relates to LXFL 529 NSCLC. Kind of assay: NCI tumour cell line growth inhibition, 48 h.
`CC(=O)Oc1c(C)c(-c2ccccc2)c(C)c(-c2ccccc2)c1C(=S)c1ccccc1` had a TGI of over 100 µM.
On the same count and under the same terms, under `CCCCCCCCCCCC(=O)OCCOCCOCCOCCOCCOC(=O)CCCCCCCCCCC` stands over 100 µM; under `CC1(O)C(C)(O)C2(C)O[Te]3(OC12C)OC1(C)C(C)(O)C(C)(O)C1(C)O3` (stereo not given), 31.4 µM.
Same read-out and setting: as for `O=C1COc2cc(NC(=S)Nc3ccccc3)ccc2N1`, the figure is over 100 µM; as for `O=C1C=C(Nc2ccccc2C(=O)CC(=O)C(=O)Nc2cccc([N+](=O)[O-])c2)c2ccccc2C1=O`, over 100 µM.
On the same count and under the same terms, under `CNC(=O)OCc1nc(SSC(C)(C)C)n(C)c1COC(=O)NC` stands 2.74 µM.
For `O=C(Nc1ccc(Cl)cc1)C1C(=O)C(=O)N(c2ccc(Cl)cc2)C1=O` (stereo not given), the TGI is over 100 µM.
The same measure, in the same setting: as for `O=C(Nc1ccc(C(F)(F)F)cc1[N+](=O)[O-])C(=O)C1NC(=S)NC1=O` (stereo not given), the figure is over 100 µM; as for `COc1cc(NCC(C#N)C#N)ccc1N=Nc1ccc(Cl)cc1`, 51.7 µM; as for `NCCCNCCS`, over 100 µM.
The same measure, in the same setting: under `O=C1N/C(=C\[N+](=O)[O-])c2ccccc21` stands over 100 µM.
On the same count and under the same terms, as for `Nc1ncnc2c1ncn2C1C=C(CO)C(O)C1O` (stereo not given), the figure is over 100 µM; as for `NC(CCCC(N)P(=O)(O)O)P(=O)(O)O` (stereo not given), over 100 µM.
Consider `CCOC(=O)[CH-]C(=O)C12CC3CC(CC(C3)C1)C2.CCOC(=O)[CH-]C(=O)C12CC3CC(CC(C3)C1)C2.CC[O-].CC[O-].[Ti+4]`, for which the GI50 was over 100 µM and the TGI was over 100 µM.
With `C[C@]12CC=CC(=O)[C@@]1(C)CCC(=O)C2`, the TGI was over 100 µM.
